Assay results taken from patent publication US20160145242A1, “PHENYLIMIDAZOLE DERIVATIVE, AND THERAPEUTIC MEDICINE OR PREVENTIVE MEDICINE FOR INFLAMMATORY DISEASE, ETC” (NIPPON SODA CO., LTD., priority 2013, published 2016).

System: mouse model of retinal light disorders
Assay: Retinal light disorder model test (ONL thickness)
Format: in vivo
Settings: BALB/cCr male mouse, 30 mg/kg oral 30 minutes before 2 hours white light, eyes taken after 4 days
Description: (Retinal Light Disorder Model Test)
The usefulness (improvement rate with respect to retinal light disorders) of the compound of the invention was evaluated using a mouse model of retinal light disorders, generally used as a model of retinal light disorders, (Investigative Ophthalmology & Visual Science, 2002; vol. 43; pp. 1162 to 1167). Here, the improvement rate with respect to the retinal light disorders was calculated based on the thickness of an outer nuclear layer (hereinafter, referred to as “ONL”), which is strongly interfered especially by light application among a retinal cell layers, in a tissue specimen of a perpendicular surface of an eyeball.
Moreover, in the present test, the ONL of a light application group to which only a base was administered was degraded to 30% to 50% of a normal light group.
A test compound was dissolved or suspended in a solvent (1% (w/v) methyl cellulose aqueous solution) and then an administration liquid was prepared so that the test compound to be 30 mg/kg body weight. The dose was set to 10 ml/kg body weight.
A 5-week-old BALB/cCr-based male mouse (weight of approximately 20 g) was bred in a dark place for 48 hours. Subsequently, the test compound administration liquid was orally administered (30 mg/kg). After 30 minutes, […] of white light was continuously applied to the mouse for 2 hours. Next, the mouse was bred in a breeding room with 50 lux of light for 4 days.
An anesthetic (secobarbital sodium) was intraperitoneally administered to anesthetize the mouse and then the mouse was exsanguinated to die. The top portion of the right eyeball was marked with a thread and the eyeball was extracted. […]
The ONL thickness in the tissue specimen was measured for every 200 μm between the optic nerve papilla to where upwardly spaced by 1 mm from the optic nerve papilla using Lumina Vision. The area (AUC) from the optic nerve papilla to where upwardly spaced by 1 mm from the optic papilla in the graph was calculated as an ONL area. […]

Compound | ONL thickness improvement rate
CC(=O)N1CCN(c2ccc([N+](=O)[O-])c(-n3ccnc3)c2)CC1 [2-imidazole-1-yl-4-(acetylpiperazine-1-yl)nitrobenzene, reference compound] | 29.2%
CC(=O)NC1CCN(c2ccc(N)c(-n3ccnc3)c2)C1 (centres unmarked) [Compound 3-1, 3-acetylamino-1-(4-amino-3-imidazole-1-yl-phenyl)pyrrolidine] | 87.2%
